Test results taken from ChEMBL document CHEMBL1133153, “Antitumour benzothiazoles. Part 10: the synthesis and antitumour activity of benzothiazole substituted quinol derivatives” (Bioorg Med Chem Lett, 2000).

How the values were obtained:
Format in all cases: functional, cell-based
MDA-MB-468 = experiment: The compound was tested in vitro for its antitumor activity against human breast cell line MDA-468
HCT-116 = experiment: The compound was tested in vitro for its antitumor activity against human colon cancer cell line HCT116
HT-29 = experiment: The compound was tested in vitro for its antitumor activity against human colon cancer cell line HT-29
MCF7 = experiment: The compound was tested in vitro for its antitumor activity against human breast cell line MCF-7

SMILES	IC50 (MDA-MB-468) [µM]	IC50 (HCT-116) [µM]	IC50 (HT-29) [µM]	IC50 (MCF7) [µM]
Oc1ccc(-c2nc3ccccc3s2)cc1	0.14	> 100	83.7	53.4
Oc1cccc(-c2nc3ccccc3s2)c1	0.05	> 100	78.7	51.8
